Measurements taken from patent US9709557B2, “Anthraquinone based near IR emitting compounds and uses thereof” (LIFE TECHNOLOGIES CORPORATION, priority 2008, dated 2017).

Legend:
Live Jurkat cells [1] = experiment: Comparison of DNA stains on cell viability (Example 44); format: cell-based; conditions: for % Dead Cells: ethidium homodimer-1
Protocol: Live Jurkat cells are suspended at 5×10^5 cells/ml in complete RPMI media with 10% FBS. Four aliquots of 10 ml each of the cell suspension are made. A final concentration of 5 μM Hoechst 33342 (Invitrogen Corporation) is added to one aliquot, a final concentration of 5 μM DRAQ5 (Biostatus Limited, UK) is added to one aliquot, a final concentration of 5 μM Compound 9 is added to one aliquot, and one aliquot remains untreated as a control. All four aliquots are placed in a 37° C. waterbath for 30 minutes in protected from light. After the incubation, all cell suspensions are centrifuged, the cells are pelleted and the supernatant discarded. To each aliquot, 5 ml media is added. Four culture flasks are prepared by adding 35 ml media to each. One 5 ml aliquot of cells is added to one flask for each on the four cell suspensions aliquots. The flasks are placed in a 37° C. incubator with 5% CO2 in the dark for 72 hours. Each flask of cells is then gently mixed and cell suspension is removed for testing. The cell concentration and image is performed using the Cellometer instrument from Nexcelom. Percentage and absolute cell counts of live and dead cells for each treatment are determined using the LIVE/DEAD Viability/Cytotoxicity Kit (Invitrogen Corporation, Carlsbad, Calif.) with COUNTBRIGHT Absolute Counting Beads (Invitrogen Corporation). This involves adding one ml cell suspension to a 12×75 mm test tube and adding 2 μl of a 50 μM calcein AM solution to identify living cells and 4 μl of a 2 mM ethidium homodimer-1 solution to identify dead cells. The cell suspension is mixed and incubated for 20 minutes at room temperature protected from light. After the end of the incubation, 50 μl of well mixed COUNTBRIGHT absolute counting beads are added to each test tube. Each sample is run through the Becton Dickinson (BD) LSRII Flow Cytometer. Forward Scatter (FS) versus Side Scatter (SS) dual parameter plot is used to gate main cell population, and a separate gate is made around the bead population. Fluorescence is collected using 488 nm excitation laser with 530/30 bandpass and 610/20 bandpass emission filters. Markers on a dual parameter plot of calcein fluorescence versus ethidium homodimer-1 fluorescence is used to obtain percent of cells which are living and dead, as well as number of cell events recorded. By using the COUNTBRIGHT absolute counting beads assay, the absolute number of living and dead cells is calculated by using the equation: A/B×C/D=concentration of cells/μL (A=number of cell events, B=number of bead events, C=assigned bead count, D=volume of the sample in μl).

HeLa and U2OS cells = format: cell-based
Protocol: HeLa and U2OS cells were stained with DRAQ5, Hoechst 33342, mitoxantrone, and Compound 9 over a range of concentrations to evaluate the effect of the tested DNA stains on cell proliferation over time. HeLa and U2OS cells were plated at 3000 cells/well and allowed to recover overnight before proceeding with dye incubations. Cells were incubated with 0, 1, 5 or 10 μM Compound 9, Hoechst 33342, mitoxantrone, and DRAQ5 for 30 minutes at culture conditions in DPBS with glucose, washed and then placed back into media at culture conditions. Plates were stained with 100 nM YOYO-1 (Invitrogen Corporation) before being fixed and stained with 1:1000 Hoechst 33342 (total cell number) at 24, 48 and 72 hours post dye incubation. Cells were imaged with the ArrayScan VTI immediately following staining and fixation. Data obtained were from repetitions of 4 wells/condition with 10 images taken per well.

Jurkat cells = experiment: Comparison of DNA stains for staining live cells, post-sort viability and growth (Example 45); format: cell-based; conditions: 5 μM
Protocol: Jurkat cells were suspended at 5×10^5 cells/ml in complete RPMI media with 10% FBS and stained with either 5 μM Compound 9, 5 μM Hoechst 33342, or 5 μM DRAQ5 for 30 minutes at 37° C. protected from light. A control sample was also prepared with no dye treatment. Cells were washed and resuspended at 1×10^7 cells/ml in Complete RPMI+10% FBS media for sorting. Approximately 2 million Jurkat cells were sorted for each treatment by gating on the main cell population by scatter using a BD FACS Aria cell sorter. Cells were washed and plated at 1×10^5 cells/ml in complete media and grown at 37 C with 5% CO2. Cell Viability was assayed using the LIVE/DEAD Viability/Cytotoxicity Kit at 1, 2, and 3 days post sort (as described in Example 44). Brightfield images of cell growth after 8 days cell growth were collected. […] The percent of live cells decreased similarly in both Compound 9 and Hoechst 33342 treatments.

Live Jurkat cells [2] = experiment: DNA staining of live cells and cell cycle analysis using flow cytometry (Examples 42, 43); format: cell-based, human
Protocol: Live Jurkat cells are suspended at 5×10^5 cells/ml in each RPMI media with 10% FBS. Compound 19 is added to each of one mL cell suspensions at concentrations 5 μM, 10 μM, and 20 μM, and then incubated at 37° C. for 30 minutes while protected from light. Cells are run through the Becton Dickinson (BD) LSRII Flow Cytometer. Forward Scatter (FS) vs Side Scatter (SS) dual parameter plot is used to gate main cell population. Fluorescence is collected using […]: the 488 nm excitation laser with 780/60 bandpass emission filter, and using the 633 nm excitation laser with 780/60 bandpass emission filters, collecting 10,000 events at flow rate of ˜200 events/second. The data is further analyzed using MODFIT LT Flow Cytometry Modeling Software from Verity Software House, Inc. to look at ratio of G2/G1 and the % CV of G1 phase. […] Typical DNA content cell cycle histograms indicate G0G1 phase, S phase, and G2M phase, as obtained on the live cell gate, with all concentrations of the compound.
Live Jurkat cells suspended in RPMI media+10% FBS were stained with 5 μM, 10 μM, and 20 μM Compound 20 and analyzed with flow cytometry, as described in Example 42.

[3] = 5 μM dye 30 min 37° C., then 72 hours culture
[4] = 20 μM, RPMI media+10% FBS, red 633 nm laser, 780/60 emission
[5] = 20 μM, RPMI media+10% FBS, blue 488 laser, 780/60 emission

SMILES: CN(C)CCNc1ccc(O)c2c1C(=O)c1c(O)ccc(NCCN(C)C)c1C2=O [DRAQ5]
- % Dead Cells (Live Jurkat cells [1]; [3]): 95.7%
- membrane permeability indicated by YOYO-1 (HeLa and U2OS cells): high membrane permeability

SMILES: CCOc1ccc(-c2nc3ccc(-c4nc5ccc(N6CCN(C)CC6)cc5[nH]4)cc3[nH]2)cc1 [Hoechst 33342]
- post-sort viability / cytotoxicity (Jurkat cells; 30 min 37° C., sorted, 1, 2 and 3 days post sort): very similar in post-sort viability, but less than non-stained control cells
- cell growth after sort (Jurkat cells; day 3 and 8 days post sort): beginning to divide again
- Cell Count (Cellometer) (Live Jurkat cells [1]; [3]): 2.6 × 10^5 cells/mL
- Cell Count (Flow Cytommetry) (Live Jurkat cells [1]; [3]): 0.9 × 10^5 cells/mL
- % Living Cells (Live Jurkat cells [1]; 5 μM dye 30 min 37° C., then 72 hours culture, calcein AM): 57.7%
- % Dead Cells (Live Jurkat cells [1]; [3]): 39.3%
- effect of treatment on cell viability (Live Jurkat cells [1]; 5 μM, 72 hours): maintained a majority of cells as living

SMILES: CN(C)CCNC(=O)CNc1ccc(N)c2c1C(=O)c1c(O)ccc(O)c1C2=O [Compound 20]
- % CV of G1-phase (Live Jurkat cells [2]; [4]): 6.41%
- G2/G1 ratio (Live Jurkat cells [2]; [4]): 1.84

SMILES: CN(C)CCNC(=O)CNc1ccc(O)c2c1C(=O)c1c(N)ccc(O)c1C2=O [Compound 19]
- % CV of G1-phase (Live Jurkat cells [2]; [5]): 8.0%
- G2/G1 ratio (Live Jurkat cells [2]; [5]): 1.86
- % CV of G1-phase (Live Jurkat cells [2]; [4]): 6.43%
- G2/G1 ratio (Live Jurkat cells [2]; [4]): 1.83
- % CV of G1-phase (Live Jurkat cells [2]; 5, 10, 20 μM, MODFIT analysis): < 8%
